This passage reports melting point results from US8586588B2, “Aryl pyridazinone derivatives and their use as H3 receptor ligands” (Cephalon, Inc., priority 2006, dated 2013).

Where a name gives a salt, the structure may show the parent alone.

On to `CC(C)n1nc(-c2ccc(OCCCN3CCCCC3)cc2)c2sccc2c1=O` (as salt: HCl) [Example 24, 5-Isopropyl-7-[4-(3-piperidin-1-yl-propoxy)-phenyl]-5H-thieno[2,3-d]pyridazin-4-one], for which the melting point is 195 to 196 °C.
Then `CC(C)n1nc(-c2ccc(OCCCN3CCCC(C)(C)C3)cc2)c2sccc2c1=O` (as salt: HCl) [Example 25, 7-{4-[3-(3,3-Dimethyl-piperidin-1-yl)-propoxy]-phenyl}-5-isopropyl-5H-thieno[2,3-d]pyridazin-4-one], with 100 to 102 °C.
Then `COC[C@@H]1CCCN1CCCOc1ccc(-c2nn(C(C)C)c(=O)c3ccsc23)cc1` (as salt: HCl) [Example 26, 5-Isopropyl-7-{4-[3-((S)-2-methoxymethyl-pyrrolidin-1-yl)propoxy]-phenyl}-5H-thieno[2,3-d]pyridazin-4-one], with 83 °C (dec.); and `CCN(CC)CCCOc1ccc(-c2nn(C(C)C)c(=O)c3ccsc23)cc1` (as salt: HCl) [Example 28, 7-[4-(3-Diethylamino-propoxy)-phenyl]-5-isopropyl-5H-thieno[2,3-d]pyridazin-4-one], with 188 to 190 °C; and `CC(C)n1nc(-c2ccc(OCCCN3CCCC3)cc2)c2sccc2c1=O` (as salt: HCl) [Example 29, 5-Isopropyl-7-[4-(3-pyrrolidin-1-yl-propoxy)-phenyl]-5H-thieno[2,3-d]-pyridazin-4-one], with 144 °C.
In the case of `CC(C)n1nc(-c2ccc(OCCCN3CCC(N4CCCC4)CC3)cc2)c2sccc2c1=O` (as salt: HCl) [Example 30, 5-Isopropyl-7-{4-[3-(4-pyrrolidin-1-yl-piperidin-1-yl)-propoxy]-phenyl}-5H-thieno[2,3-d]pyridazin-4-one], the melting point is 283 °C (dec.).
As for `CC(C)n1nc(-c2ccc(OCCCN3[C@H](C)CC[C@H]3C)cc2)c2sccc2c1=O` (as salt: HCl) [Example 31, 7-{4-[3-((2R,5R)-2,5-Dimethyl-pyrrolidin-1-yl)-propoxy]-phenyl}-5-isopropyl-5H-thieno[2,3-d]pyridazin-4-one], the figure is 106 °C (dec.); as for `CCCn1nc(-c2ccc(OCCCN3CCC[C@H]3C)cc2)c2sccc2c1=O` (as salt: HCl) [Example 32, 7-{4-[3-((R)-2-Methyl-pyrrolidin-1-yl)-propoxy]phenyl}-5-propyl-5H-thieno[2,3-d]pyridazin-4-one], 151 to 153 °C; as for `CCCn1nc(-c2ccc(OCCCN3[C@H](C)CC[C@H]3C)cc2)c2sccc2c1=O` (as salt: HCl) [Example 33, 7-{4-[3-((2R,5R)-2,5-Dimethyl-pyrrolidin-1-yl)-propoxy]-phenyl)-5-propyl-5H-thieno[2,3-d]pyridazin-4-one], 84 °C (dec.).
As for `CCCn1nc(-c2ccc(OCCCN3CCC(C)CC3)cc2)c2sccc2c1=O` (as salt: HCl) [Example 34, 7-{4-[3-(4-Methyl-piperidin-1-yl)-propoxy]-phenyl}-5-propyl-5H-thieno[2,3-d]pyridazin-4-one], the figure is 168 to 170 °C.
Then `CCCn1nc(-c2ccc(OCCCN3CCC(N(C)C)CC3)cc2)c2sccc2c1=O` (as salt: HCl) [Example 35, 7-{4-[3-(4-Dimethylamino-piperidin-1-yl)-propoxy]-phenyl}-5-propyl-5H-thieno[2,3-d]pyridazin-4-one], with 207 to 209 °C; and `CCCn1nc(-c2ccc(OCCCN3CCC[C@H]3CN3CCCC3)cc2)c2sccc2c1=O` (as salt: HCl) [Example 36, 5-Propyl-7-{4-[3-((S)-2-pyrrolidin-1-ylmethyl-pyrrolidin-1-yl)-propoxy]-phenyl}-5H-thieno[2,3-d]pyridazin-4-one], with 123 °C (dec.).
The compound `O=c1c2ccsc2c(-c2ccc(OCCCN3CCCCC3)cc2)nn1Cc1ccc(Cl)cc1` (as salt: HCl) [Example 37, 5-(4-Chloro-benzyl)-7-[4-(3-piperidin-1-yl-propoxy)-phenyl]-5H-thieno[2,3-d]pyridazin-4-one] returned a melting point of 227 to 229 °C.
As for `C[C@@H]1CCCN1CCCOc1ccc(-c2nn(Cc3ccc(Cl)cc3)c(=O)c3ccsc23)cc1` (as salt: HCl) [Example 38, 5-(4-Chloro-benzyl)-7-{4-[3-((R)-2-methyl-pyrrolidin-1-yl)-propoxy]-phenyl}-5H-thieno[2,3-d]pyridazin-4-one], the figure is 223 to 224 °C.
`Cc1cc(-c2ccc(OCCCN3CCC[C@H]3C)cc2)nn(C)c1=O` (as salt: HCl) [Example 40, 2,4-Dimethyl-6-{4-[3-((R)-2-methyl-pyrrolidin-1-yl)-propoxy]-phenyl}-2H-pyridazin-3-one] displayed a melting point of 175 to 176 °C.
As for `Cc1cc(-c2ccc(OCCCN3CCCCC3)cc2)nn(C(C)C)c1=O` (as salt: HCl) [Example 42, 2-Isopropyl-4-methyl-6-[4-(3-piperidin-1-yl-propoxy)-phenyl]-2H-pyridazin-3-one], the figure is 197 to 198 °C; as for `Cc1cc(-c2ccc(OCCCN3CCC[C@H]3C)cc2)nn(Cc2ccccc2)c1=O` (as salt: HCl) [Example 43, 2-Benzyl-4-methyl-6-{4-[3-((R)-2-methyl-pyrrolidin-1-yl)-propoxy]-phenyl}-2H-pyridazin-3-one], 190 to 192 °C.
Then `Cc1cc(-c2ccc(OCCCN3CCCCC3)cc2)nn(Cc2ccccc2)c1=O` (as salt: HCl) [Example 44, 2-Benzyl-4-methyl-6-[4-(3-piperidin-1-yl-propoxy)-phenyl]-2H-pyridazin-3-one], with 232 to 233 °C; and `C[C@@H]1CCCN1CCCOc1ccc(-c2cc(Cc3ccccc3)c(=O)n(C)n2)cc1` (as salt: HCl) [Example 45, 4-Benzyl-2-methyl-6-{4-[3-((R)-2-methyl-pyrrolidin-1-yl)-propoxy]-phenyl}-2H-pyridazin-3-one], with 232 to 233 °C.
As for `Cn1nc(-c2ccc(OCCCN3CCCCC3)cc2)cc(Cc2ccccc2)c1=O` (as salt: HCl) [Example 46, 4-Benzyl-2-methyl-6-[4-(3-piperidin-1-yl-propoxy)-phenyl]-2H-pyridazin-3-one], the figure is 186 to 187 °C.
For `C[C@@H]1CCCN1CCCOc1ccc(-c2nn(C)c(=O)cc2-c2ccccc2)cc1` (as salt: HCl) [Example 47, 2-Methyl-6-{4-[3-((R)-2-methyl-pyrrolidin-1-yl)-propoxy]-phenyl}-5-phenyl-2H-pyridazin-3-one], the melting point lay within 207 to 209 °C.
As for `Cn1nc(-c2ccc(OCCCN3CCCCC3)cc2)c(-c2ccccc2)cc1=O` (as salt: HCl) [Example 48, 2-Methyl-5-phenyl-6-[4-(3-piperidin-1-yl-propoxy)-phenyl]-2H-pyridazin-3-one], the figure is 212 to 214 °C; as for `C[C@@H]1CCCN1CCCOc1ccc(-c2nn(C)c(=O)c3ccccc23)cc1` (as salt: HCl) [Example 49, 2-Methyl-4-{4-[3-((R)-2-methyl-pyrrolidin-1-yl)-propoxy]-phenyl}-2H-phthalazin-1-one], 216 to 217 °C; as for `Cn1nc(-c2ccc(OCCN3CCCCC3)cc2)c2ccccc2c1=O` (as salt: HCl) [Example 51, 2-Methyl-4-[4-(2-piperidin-1-yl-ethoxy)-phenyl]-2H-phthalazin-1-one], 253 to 254 °C.
`Cn1nc(-c2ccc(OCCCN3CCCC3)cc2)c2ccccc2c1=O` (as salt: HCl) [Example 52, 2-Methyl-4-[4-(3-pyrrolidin-1-yl-propoxy)-phenyl]-2H-phthalazin-1-one] came in with a melting point of 201 to 203 °C.
For the compound `Cn1nc(-c2ccc(OCCCN3CCCCCC3)cc2)c2ccccc2c1=O` (as salt: HCl) [Example 53, 4-[4-(3-Azepan-1-yl-propoxy)-phenyl]-2-methyl-2H-phthalazin-1-one], the melting point is 238 to 240 °C.
Then `C[C@@H]1CCCN1CCCOc1ccc(-c2nn(Cc3ccc(Cl)cc3)c(=O)c3ccccc23)cc1` (as salt: HCl) [Example 54, 2-(4-Chloro-benzyl)-4-{4-[3-((R)-2-methyl-pyrrolidin-1-yl)-propoxy]-phenyl}-2H-phthalazin-1-one], with 217 to 218 °C.
In turn, `O=c1c2ccccc2c(-c2ccc(OCCCN3CCCCC3)cc2)nn1Cc1ccc(Cl)cc1` (as salt: HCl) [Example 55, 2-(4-Chloro-benzyl)-4-[4-(3-piperidin-1-yl-propoxy)-phenyl]-2H-phthalazin-1-one] gave a melting point of 216 to 217 °C.
Compound `Cn1nc(-c2ccc(OCCCN3CCCCC3)cc2)c2c(c1=O)CCC2` (as salt: HCl) [Example 57, 2-Methyl-4-[4-(3-piperidin-1-yl-propoxy)-phenyl]-2,5,6,7-tetrahydro-cyclopenta[d]pyridazin-1-one] registered a melting point of 214 to 216 °C.
Take `C[C@@H]1CCCN1CCCOc1ccc(C2=NN(C)C(=O)C3CCCC23)cc1` (stereo partly drawn) (as salt: HCl) [Example 58, 2-Methyl-4-{4-[3-((R)-2-methyl-pyrrolidin-1-yl)-propoxy]-phenyl}-2,4a,5,6,7,7a-hexahydro-cyclopenta[d]pyridazin-1-one]: the melting point was < 50 °C.
As for `CN1N=C(c2ccc(OCCCN3CCCCC3)cc2)C2CCCC2C1=O` (stereo not shown) (as salt: HCl) [Example 59, 2-Methyl-4-[4-(3-piperidin-1-yl-propoxy)-phenyl]-2,4a,5,6,7,7a-hexahydro-cyclopenta[d]pyridazin-1-one], the melting point was < 50 °C.
Then `C[C@@H]1CCCN1CCCOc1ccc(-c2nn(C)c(=O)c3c2CCCC3)cc1` (as salt: HCl) [Example 60, 2-Methyl-4-{4-[3-((R)-2-methyl-pyrrolidin-1-yl)-propoxy]-phenyl}-5,6,7,8-tetrahydro-2H-phthalazin-1-one], with 156 to 158 °C.
In the case of `Cn1nc(-c2ccc(OCCCN3CCCCC3)cc2)c2c(c1=O)CCCC2` (as salt: HCl) [Example 61], the melting point was in the range of 196 to 198 °C.
Then `Cn1nc(-c2ccc(OCC3CCNCC3)cc2)c2ccccc2c1=O` (as salt: HCl) [Example 63, 2-Methyl-4-[4-(piperidin-4-ylmethoxy)-phenyl]-2H-phthalazin-1-one], with 207 to 209 °C.
